{"source": "paper PMC11249239", "about": "(PLOS ONE, 2024)", "key": {"HDAC6": {"target": "T1, HDAC6 (Homo sapiens, UniProt Q9UBN7)", "T1 construct": "purchased PBS Bioscience [sic] (San Diego, CA); host or cells: Sf9 insect cells / baculovirus", "T1 sequence (Q9UBN7 1-1215)": "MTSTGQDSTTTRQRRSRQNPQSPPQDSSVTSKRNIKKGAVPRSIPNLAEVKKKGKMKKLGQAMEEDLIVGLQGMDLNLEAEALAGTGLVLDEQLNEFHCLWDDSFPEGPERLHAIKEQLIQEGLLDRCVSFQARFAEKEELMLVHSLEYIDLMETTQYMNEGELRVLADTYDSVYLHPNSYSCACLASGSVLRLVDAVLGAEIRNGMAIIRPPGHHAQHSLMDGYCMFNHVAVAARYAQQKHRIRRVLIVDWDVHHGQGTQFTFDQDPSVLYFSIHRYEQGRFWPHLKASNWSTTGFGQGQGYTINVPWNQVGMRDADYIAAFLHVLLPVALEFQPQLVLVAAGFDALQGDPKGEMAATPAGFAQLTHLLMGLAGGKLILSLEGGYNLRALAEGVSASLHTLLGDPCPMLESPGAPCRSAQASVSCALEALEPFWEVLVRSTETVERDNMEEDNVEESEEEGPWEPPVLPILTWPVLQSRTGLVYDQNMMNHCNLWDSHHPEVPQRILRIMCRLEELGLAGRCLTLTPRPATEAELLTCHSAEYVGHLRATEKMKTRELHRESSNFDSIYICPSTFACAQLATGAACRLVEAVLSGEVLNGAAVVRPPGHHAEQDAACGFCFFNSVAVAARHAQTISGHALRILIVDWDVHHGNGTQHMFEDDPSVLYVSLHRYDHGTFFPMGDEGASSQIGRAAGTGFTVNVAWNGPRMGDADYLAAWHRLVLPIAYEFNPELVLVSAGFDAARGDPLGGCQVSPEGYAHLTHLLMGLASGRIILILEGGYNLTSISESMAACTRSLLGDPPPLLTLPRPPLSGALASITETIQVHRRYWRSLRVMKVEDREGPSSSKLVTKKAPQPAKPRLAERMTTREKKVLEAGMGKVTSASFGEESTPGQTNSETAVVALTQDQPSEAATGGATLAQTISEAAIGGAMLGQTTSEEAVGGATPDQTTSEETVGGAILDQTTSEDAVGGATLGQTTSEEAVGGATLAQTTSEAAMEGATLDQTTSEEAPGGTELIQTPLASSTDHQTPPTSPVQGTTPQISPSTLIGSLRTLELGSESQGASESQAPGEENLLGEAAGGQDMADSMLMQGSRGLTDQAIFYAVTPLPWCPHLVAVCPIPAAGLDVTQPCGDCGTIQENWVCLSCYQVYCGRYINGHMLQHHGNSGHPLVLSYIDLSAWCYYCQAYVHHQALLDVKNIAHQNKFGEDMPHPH", "test": "In vitro HDAC isoform inhibition, purified recombinant HDAC6", "assay_type": "biochemical", "text": "In vitro HDAC enzyme inhibition assays utilized HeLa cell extract for pan-HDACs with the substrate Fluor-Lys following the manufacturer’s protocol (BIOMOL/ENZO, Plymouth Meeting, PA). For isoform assays, purified HDAC1, HDAC3, and HDAC6 recombinant proteins produced by expressing epitope-tagged full-length proteins in the sf9 baculovirus expression vector system were purchased from PBS Bioscience (San Diego, CA). […] The reaction commenced with the addition of HDAC substrate at room temperature and proceeded for 30 minutes. Termination of the reaction was achieved by adding 50 μL of Fluor de Lys (TM) Assay Developer. The fluorophore was excited at 360 nm and emitted light at 460 nm. Relative fluorescence was measured using a FlexStation II plate reader (Molecular Devices, Sunnyvale, CA)."}, "HDAC5": {"target": "HDAC5 (Homo sapiens, UniProt Q9UQL6)", "sequence (Q9UQL6 whole entry, species assumed)": "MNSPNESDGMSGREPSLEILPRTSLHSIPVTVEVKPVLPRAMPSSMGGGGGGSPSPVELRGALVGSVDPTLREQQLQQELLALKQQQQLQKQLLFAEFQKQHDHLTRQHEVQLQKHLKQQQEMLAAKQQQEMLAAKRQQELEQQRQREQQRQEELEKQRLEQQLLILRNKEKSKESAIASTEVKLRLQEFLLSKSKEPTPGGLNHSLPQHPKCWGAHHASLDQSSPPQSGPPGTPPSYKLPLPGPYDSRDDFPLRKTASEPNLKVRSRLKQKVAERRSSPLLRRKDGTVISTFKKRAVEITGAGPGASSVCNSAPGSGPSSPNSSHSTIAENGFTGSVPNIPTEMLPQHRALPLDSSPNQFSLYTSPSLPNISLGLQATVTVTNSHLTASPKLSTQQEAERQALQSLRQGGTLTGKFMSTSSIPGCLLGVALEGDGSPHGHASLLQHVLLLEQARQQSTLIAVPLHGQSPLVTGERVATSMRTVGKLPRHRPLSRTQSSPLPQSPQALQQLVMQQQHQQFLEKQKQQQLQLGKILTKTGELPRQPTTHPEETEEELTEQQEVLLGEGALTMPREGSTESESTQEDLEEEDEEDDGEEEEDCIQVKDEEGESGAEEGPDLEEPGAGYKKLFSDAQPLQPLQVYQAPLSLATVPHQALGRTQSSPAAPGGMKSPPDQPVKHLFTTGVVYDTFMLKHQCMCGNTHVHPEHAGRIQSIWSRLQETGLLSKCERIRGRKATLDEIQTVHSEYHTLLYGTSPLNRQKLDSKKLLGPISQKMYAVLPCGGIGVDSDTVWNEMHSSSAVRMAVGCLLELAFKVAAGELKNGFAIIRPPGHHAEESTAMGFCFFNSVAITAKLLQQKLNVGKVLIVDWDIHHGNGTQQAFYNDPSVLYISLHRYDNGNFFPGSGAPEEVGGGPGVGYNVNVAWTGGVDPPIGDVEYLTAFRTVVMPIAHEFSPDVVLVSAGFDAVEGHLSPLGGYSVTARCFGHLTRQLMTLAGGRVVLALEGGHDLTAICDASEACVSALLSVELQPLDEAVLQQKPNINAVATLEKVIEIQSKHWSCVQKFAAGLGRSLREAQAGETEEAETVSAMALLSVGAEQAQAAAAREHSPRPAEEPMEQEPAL", "test": "HDAC5 activity inhibition (data not shown)", "assay_type": "biochemical", "details": "read-out: IC50 class IIa HDAC5 inhibition"}, "[1]": {"test": "Plasma pharmacokinetics after intravenous administration", "assay_type": "in vivo, Sprague-Dawley rats", "details": "20 mg/kg IV", "text": "A commercial vendor (Medicilon, Inc.) performed the pharmacokinetic studies. Male Sprague-Dawley Rats (n = 8) were received from Sino-British SIPPR/BK Lab Animal Ltd., Shanghai, and 6 animals were placed on study. All studies were approved by the Institutional Animal Care and Use Committee (Protocol #: 19098–17002) of Medicilon Preclinical Research-Shanghai LLC, Pudong Shanghai 201200, P.R. China. The animals were allowed to acclimatize for at least 5 d before beginning the study. The procedure was performed under general anesthesia with 3–5% isoflurane for blood collections via jugular vein. All efforts were made to minimizing suffering and least stressful. The compound was dissolved in 5% DMSO + 40% PEG400 + 55% PBS to yield a final concentration of 2 mg/ml. The tolerated dose (20 mg/Kg) was administered via intravenous (IV) in rats. After IV administration, blood samples were collected via jugular vein at various time points (0, 1, 2, 4, 6, and 8 h) under general anesthesia with 3–5% isoflurane. Samples were then placed into tubes containing K2EDTA and centrifuged at 8,000 rpm for 6 min to obtain plasma. The resulting plasma were analyzed by LCMS. Following completion of the study, all surviving animals were euthanized with CO2, followed by cervical dislocation. Pharmacokinetic analysis was determined using a non-compartmental module of WinNonlin Professional 5.2. The maximum measured plasma concentrations (Cmax) and the time of Cmax (tmax) were derived directly from the data. The area under the curve (AUC) was calculated using the log-linear trapezoidal method rule up to the last data point and was extrapolated to infinity with the following formula: Clast/β, where Clast is the last measured concentration time point. The elimination half-life was calculated with the equation t1/2 = 0.693/β, where β is the terminal rate constant. The clearance (Cl = dose/AUC) rate was also evaluated."}, "[2]": {"test_system": "ER+ BC cells (MCF-7 and T47D)", "test": "Cell growth inhibition, ER+ breast cancer cells stated together", "assay_type": "cell-based", "text": "Prism-GraphPad software was used to analyze data."}}, "data": [{"smiles": "Cc1[nH]c2ccccc2c1C1=C(c2c(C)[nH]c3ccccc23)C(=O)N(CCCCCCC(=O)NO)C1=O", "note": "[SP-1-303]", "values": [{"measurement": "ratio of inhibitory concentrations for HDAC6 to HDAC1", "setting": "HDAC6", "result": 36, "unit": "fold"}, {"measurement": "IC50", "setting": "HDAC6; purified recombinant protein, ± margin of error of 95% confidence interval, read-out: IC50 HDAC inhibition activity in vitro, HDAC 6", "result": "435 ± 35", "unit": "nM"}, {"measurement": "Ratio (HDAC6:HDAC1)", "setting": "HDAC6; ratio of IC50 values", "result": 36}, {"measurement": "IC50", "setting": "HDAC5", "result": "> 20000", "unit": "nM"}, {"measurement": "Tmax", "setting": "[1]; male, Sprague-Dawley, plasma, rat, mean value, read-out: tmax, time to reach maximum plasma concentration", "result": 4.98, "unit": "min"}, {"measurement": "half-life", "setting": "[1]; male, Sprague-Dawley, plasma, rat, read-out: t1/2, elimination half-life (converted)", "result": 75.6, "unit": "min"}, {"measurement": "compound remaining in plasma at 4 h", "setting": "[1]; rat plasma, 4 h", "result": 1, "unit": "%"}, {"measurement": "AUC, area under the curve", "setting": "[1]; rat", "result": 5227.55, "unit": "ng/ml x h"}, {"measurement": "inhibition of ER+ BC cell growth compared to ER- TNBC cell growth", "setting": "[2]", "result": "4-8 fold"}, {"measurement": "potency in ER+ cell lines relative to SAHA", "setting": "[2]; more potent than SAHA", "result": 10, "unit": "fold"}, {"measurement": "EC50", "setting": "[2]; range over MCF-7 and T47D cells, read-out: effective growth inhibition concentrations (EC50)", "result": "320 to 340", "unit": "nM"}]}]}
